Test results reported in patent US11166920B2, “Microfluidics device for fabrication of large, uniform, injectable hydrogel microparticles for cell encapsulation” (Auburn University, priority 2017, dated 2021).
Entries after “also recorded” stand apart in the source; their conditions may differ.

Tested on: microsphere CMs
Experiment: Multielectrode array: drug response and exogenous pacing
Type: cell-based, human
Settings: day 20 microsphere CMs; isoproterenol 1 μM, then propranolol 1 μM
Protocol: Day 20 and 50 dissociated microsphere CMs were seeded onto a fibronectin coated S2 type MEA200/30-Ti-gr (Multichannel Systems) and cultured for at least 24 h. Adhering microsphere CMs were perfused with Tyrode's solution, composed of 1.8 mM CaCl2), 5 mM glucose, 5 mM HEPES, 1 mM MgCl2, 5.4 mM KCl, 135 mM NaCl, and 0.33 mM NaH2PO4 at pH 7.4 and 37° C. Once stabilized, field potentials of spontaneous contractions were recorded at a sampling frequency of 10 kHz. Drug response of day 20 microsphere CMs was tested by adding the β-adrenergic agonist isoproterenol (1 μM) and antagonist propranolol (1 μM). Day 50 microsphere CMs were exogenously paced from 0.5-6.0 Hz.

SMILES	Effect on contraction rate
CC(C)NCC(O)c1ccc(O)c(O)c1 (centres unmarked) [isoproterenol]	increases the frequency of contraction; also recorded: increasing the contraction rate
CC(C)NCC(O)COc1cccc2ccccc12 (centres unmarked) [propranolol]	slowed down the rate of contraction; also recorded: reversed the initial increase in contraction rate
